Values after ≈ are worked out from the molar mass of the structure shown.
How the values were obtained:
C. albicans ATCC 90028 = assay: Antifungal activity: MIC/MFC, disc-diffusion; type: cell-based, Candida albicans; conditions: Candida albicans, ATCC90028; read-out: MIC
Summary of the method: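 Strains held at −80 °C were subcultured twice (TSA for bacteria, Sabouraud dextrose agar for yeasts; 24–48 h, 30 °C). MICs were then measured and disc diffusion run following EUCAST and CLSI guidance. Cidal endpoints (MBC, MFC) were assessed per CLSI.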

S. aureus NMI 664 K MRSA = assay: Antibacterial activity against clinical MRSA: MIC/MBC; type: cell-based; conditions: Staphylococcus aureus, NMI 664 K MRSA; for MBC: read-out: MBC (first MBC where Eagle effect); for MIC: read-out: MIC
Procedure: Direct antimicrobial activity was determined against the following standard strains: (1) Gram-positive cocci: methicillin-sensitive Staphylococcus aureus ATCC 6538P (MSSA), methicillin-resistant S. aureus subsp. aureus ATCC 43300 (MRSA), S. epidermidis ATCC 12228, Enterococcus faecium ATCC 6057, E. faecalis ATCC 29212, Bacillus subtilis ATCC 6633; (2) Gram-negative bacteria from Enterobacteriales order: Klebsiella pneumoniae ATCC 13883, Escherichia coli ATCC 25922, Enterobacter cloacae DSM 6234, Proteus mirabilis ATCC 12453, Serratia marcescens ATCC 13880; (3) Gram-negative non-fermentative rods: Acinetobacter baumannii ATCC 19606, Pseudomonas aeruginosa ATCC 27853, Stenotrophomonas maltophilia ATCC 12714, S. maltophilia ATCC 13637, Burkholderia cepacia ATCC 25416, Bordetella bronchiseptica ATCC 4617; (4) yeasts: Candida albicans ATCC 90028, C. krusei ATCC 6258, C. parapsilosis ATCC 22019, C. tropicalis (Castellani) Berkhout ATCC 750, C. tropicalis IBA 171, C. guilliermondii IBA 155, and Saccharomyces cerevisiae ATCC 9763. Moreover, 5 clinical strains of methicillin-resistant S. aureus were also included: NMI 664 K, NMI 1576 K, NMI 1712 K, NMI 1991 K, and NMI 2541 K. All strains were stored at −80 °C. Prior to testing, each bacterial strain was subcultured twice on tryptic soy agar TSA (bioMerieux) medium and yeast strains on Sabouraud dextrose agar (bioMerieux) for 24–48 h at 30 °C to ensure viability. The antimicrobial activity was evaluated as previously described[26] by the disc-diffusion method and the MIC determination assays according to the EUCAST (ref. [71] and [72]) and CLSI (ref. [53] and [73]) recommendations. Assessment of bactericidal (MBC) and fungicidal (MFC) activities was performed according to the CLSI recommendations.[54,74] The following reference agents were used: fluconazole (in the case of fungi), linezolid (for Gram-positive bacteria), and nitrofurantoin (for Gram-negative rods). The new benzosiloxaboroles were dissolved in DMSO (Sigma).

E. coli ATCC 25922 = assay: Antibacterial activity: MIC/MBC, MIC with PAβN, disc-diffusion; type: cell-based, Escherichia coli; conditions: E. coli ATCC 25922; for MIC: read-out: MIC
Summary of the method: (§1)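 Read-outs are disc-diffusion zones, broth-microdilution MICs and bactericidal concentrations (MBC), following EUCAST and CLSI guidance. The efflux contribution was probed by rerunning MICs with 20 μg mL^−1 PAβN in MgSO4-supplemented (1 mM) Mueller–Hinton II broth, a ≥4-fold decrease being significant.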

[1] = test system: Human normal lung fibroblasts MRC-5; assay: MTT-based viability (cytotoxicity) assay; conditions: for IC50: Homo sapiens, MRC5, 48 h
Summary of the method: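 MRC-5 pd30 human lung fibroblasts in supplemented MEME at 37 °C, 5% CO2; viability by MTT, absorbance 570 nm, triplicate, as percent of control cells. Selectivity index taken as IC50/MIC against S. aureus MRSA strains.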

[2] = test system: B. bronchiseptica ATCC 4617; assay: Antibacterial activity: MIC/MBC, disc-diffusion; type: cell-based, Bordetella bronchiseptica; conditions: B. bronchiseptica ATCC 4617; for MIC: read-out: MIC
Summary of the method: as §1

[3] = (-) = zone not observed, paper discs 9 mm
[4] = Bordetella bronchiseptica, ATCC4617

SMILES | MIC (C. albicans ATCC 90028) | MBC (S. aureus NMI 664 K MRSA) | MIC (S. aureus NMI 664 K MRSA) | diameter of inhibition zone (E. coli ATCC 25922; [3]) | MBC (E. coli ATCC 25922; Escherichia coli, ATCC25922) | MIC (E. coli ATCC 25922; Escherichia coli, ATCC25922) | viability of MRC-5 ([1]; 6.25 µg·mL−1, 48 h) | viability of MRC-5 ([1]; 12.5 µg·mL−1, 48 h) | viability of MRC-5 ([1]; 25 µg·mL−1, 48 h) | viability of MRC-5 ([1]; 50 µg·mL−1, 48 h) | viability of MRC-5 ([1]; 100 µg·mL−1, 48 h) | viability of MRC-5 ([1]; 200 µg·mL−1, 48 h) | viability of MRC-5 ([1]; 400 µg·mL−1, 48 h) | IC50 [1] | diameter of inhibition zone [2, 3] | MBC [2, 4] | MIC [2, 4]
C[Si]1(C)OB(O)c2cc(F)c(SC3CC(=O)NC3=O)c(F)c21 (stereo not drawn) [Compound 12, 3-((5,7-Difluoro-3-hydroxy-1,1-dimethyl-1,3-dihydrobenzo[c][1,2,5]oxasilaborol-6-yl)thio)pyrrolidine-2,5-dione] | > 400 µg/mL | 200 µg/mL (≈ 583 µM) | 12.5 µg/mL (≈ 36.4 µM) | 17 mm | 200 µg/mL (≈ 583 µM) | 50 µg/mL (≈ 146 µM) | 103.0±1.5 % of control ± SD | 104.4±1.9 % of control ± SD | 94.9±2.3 % of control ± SD | 86.1±6.9 % of control ± SD | 76.4±3.5 % of control ± SD | 46.9±2.7 % of control ± SD | 0.4±0.2 % of control ± SD | 167 µg/mL (≈ 488 µM) | 25 mm | 50 µg/mL (≈ 146 µM) | 12.5 µg/mL (≈ 36.4 µM)
CC(=O)CSc1ccc2c(c1F)[Si](C)(C)OB2O [Compound 22, 1-((7-Fluoro-3-hydroxy-1,1-dimethyl-1,3-dihydrobenzo[c][1,2,5]oxasilaborol-6-yl)thio)propan-2-one] | > 400 µg/mL | 200 µg/mL (≈ 704 µM) | 6.25 µg/mL (≈ 22 µM) | – | – | > 400 µg/mL | 92.1±0.1 % of control ± SD | 91.5±2.5 % of control ± SD | 85.2±1.1 % of control ± SD | 94.4±2.1 % of control ± SD | 78.4±4.5 % of control ± SD | 69.6±3.7 % of control ± SD | 41.4±0.4 % of control ± SD | > 200 µg/mL | – | – | > 400 µg/mL

Source: PMC11110727, “Exploiting thiol-functionalized benzosiloxaboroles for achieving diverse substitution patterns – synthesis, characterization and biological evaluation of promising antibacterial agents” (RSC Medicinal Chemistry, 2024)
